These results are taken from ChEMBL document CHEMBL1122447, “2-Acetylpyridine thiosemicarbazones. 5. 1-[1-(2-Pyridyl)ethyl]-3-thiosemicarbazides as potential antimalarial agents” (1983).

The structures appear in SMILES notation.

The test system of assay [1] is Plasmodium berghei. The experiment in a line: Increased mean survival time in drug-sensitive Plasmodium berghei infected mice (Mus musculus) at 40 mg/kg dose. The assay is classed as functional.
Assay [2] has as its system Plasmodium berghei. The experiment in a line: Antimalarial activity against Plasmodium berghei infected mice (Mus musculus) at 160 mg/kg; cured 1 of 5. More on the design: dose 160 mg/kg. The format is functional, organism-based.
In assay [3] the test system is Plasmodium berghei. The experiment in a line: Antimalarial activity against Plasmodium berghei infected mice (Mus musculus) at 160 mg/kg; toxic in 3 of 5. The assay is classed as functional, organism-based. More on the design: dose 160 mg/kg.
Assay [4] relates to Plasmodium berghei. The experiment in a line: Antimalarial activity against Plasmodium berghei infected mice (Mus musculus) at 640 mg/kg; toxic in 5 of 5. The format is functional, organism-based. More on the design: dose 640 mg/kg.
Assay [5] relates to Plasmodium berghei. The experiment in a line: Increased mean survival time in drug-sensitive Plasmodium berghei infected mice (Mus musculus) at 20 mg/kg dose. The assay is classed as functional.
Assay [6] concerns Plasmodium berghei. The experiment in a line: Increased mean survival time in drug-sensitive Plasmodium berghei in mice (Mus musculus) at 80 mg/kg dose. The format is functional.
Assay [7] has as its system Plasmodium berghei. The experiment in a line: Increased mean survival time in drug-sensitive Plasmodium berghei infected mice (Mus musculus) at 320 mg/kg; cured 3 of 5. The assay is classed as functional, organism-based. More on the design: dose 320 mg/kg.
Assay [8] relates to Plasmodium berghei. The experiment in a line: Increased mean survival time in drug-sensitive Plasmodium berghei infected mice (Mus musculus) at 640 mg/kg; cured 2 of 5. More on the design: dose 640 mg/kg. The assay is classed as functional, organism-based.
The test system of assay [9] is Plasmodium berghei. The experiment in a line: Increased mean survival time in drug-sensitive Plasmodium berghei infected mice (Mus musculus) at 160 mg/kg; cured 1 of 5. The assay is classed as functional, organism-based. More on the design: dose 160 mg/kg.
Assay [10] relates to Plasmodium berghei. The experiment in a line: Increased mean survival time in drug-sensitive Plasmodium berghei infected mice (Mus musculus) at 160 mg/kg; cured 4 of 5. The format is functional, organism-based. More on the design: dose 160 mg/kg.
The subject of assay [11] is Plasmodium berghei. The experiment in a line: Increased mean survival time in drug-sensitive Plasmodium berghei infected mice (Mus musculus) at 40 mg/kg; cured 1 of 5. More on the design: dose 40 mg/kg. The format is functional, organism-based.
The subject of assay [12] is Plasmodium berghei. The experiment in a line: Increased mean survival time in drug-sensitive Plasmodium berghei infected mice (Mus musculus) at 640 mg/kg; cured 5 of 5. The format is functional, organism-based. More on the design: dose 640 mg/kg.
For assay [13], the system named is Plasmodium berghei. The experiment in a line: Increased mean survival time in drug-sensitive Plasmodium berghei infected mice (Mus musculus) at 320 mg/kg; cured 5 of 5. The assay is classed as functional, organism-based. More on the design: dose 320 mg/kg.
The subject of assay [14] is Plasmodium berghei. The experiment in a line: Increased mean survival time in drug-sensitive Plasmodium berghei infected mice (Mus musculus) at 160 mg/kg; cured 3 of 5. The format is functional, organism-based. More on the design: dose 160 mg/kg.
For assay [15], the system named is Plasmodium berghei. The experiment in a line: Increased mean survival time in drug-sensitive Plasmodium berghei infected mice (Mus musculus) at 80 mg/kg; cured 1 of 5. The assay is classed as functional, organism-based. More on the design: dose 80 mg/kg.
Assay [16] concerns Plasmodium berghei. The experiment in a line: Increased mean survival time in drug-sensitive Plasmodium berghei infected mice (Mus musculus) at 320 mg/kg; toxic in 4 of 5. The assay is classed as functional, organism-based. More on the design: dose 320 mg/kg.
The test system of assay [17] is Plasmodium berghei. The experiment in a line: Increased mean survival time in drug-sensitive Plasmodium berghei infected mice (Mus musculus) at 640 mg/kg dose. The assay is classed as functional.
Assay [18] concerns Plasmodium berghei. The experiment in a line: Increased mean survival time in drug-sensitive Plasmodium berghei infected mice (Mus musculus) at 160 mg/kg; toxic in 1 of 5. The assay is classed as functional, organism-based. More on the design: dose 160 mg/kg.
Assay [19] has as its system Plasmodium berghei. The experiment in a line: Antimalarial activity against Plasmodium berghei infected mice (Mus musculus) at 160 mg/kg; toxic in 5 of 5. More on the design: dose 160 mg/kg. The format is functional, organism-based.
Assay [20] has as its system Plasmodium berghei. The experiment in a line: Increased mean survival time in drug-sensitive Plasmodium berghei infected mice (Mus musculus) at 640 mg/kg; toxic in 5 of 5. The assay is classed as functional, organism-based. More on the design: dose 640 mg/kg.
For assay [21], the system named is Plasmodium berghei. The experiment in a line: Increased mean survival time in drug-sensitive Plasmodium berghei infected mice (Mus musculus) at 5 mg/kg; cured 2 of 5. The format is functional.
For assay [22], the system named is Plasmodium berghei. The experiment in a line: Antimalarial activity against Plasmodium berghei infected mice (Mus musculus) at 20 mg/kg; toxic in 1 of 5. The format is functional, organism-based. More on the design: dose 20 mg/kg.
Assay [23] concerns Plasmodium berghei. The experiment in a line: Antimalarial activity against Plasmodium berghei infected mice (Mus musculus) at 40 mg/kg; toxic in 5 of 5. The format is functional, organism-based. More on the design: dose 40 mg/kg.
Assay [24] has as its system Plasmodium berghei. The experiment in a line: Increased MST in drug-sensitive Plasmodium berghei infected mice (Mus musculus) at 10 mg/kg; […]. More on the design: dose 10 mg/kg. The format is functional, organism-based.
Assay [25] deals with Plasmodium berghei. The experiment in a line: Increased mean survival time in drug-sensitive Plasmodium berghei infected mice (Mus musculus) at 640 mg/kg; toxic in 2 of 5. The format is functional.
Assay [26] deals with Plasmodium berghei. The experiment in a line: Increase in mean survival time in drug-sensitive Plasmodium berghei infected mice (Mus musculus) at 160 mg/kg dose. The assay is classed as functional.
Assay [27] has as its system Plasmodium berghei. The experiment in a line: Increased mean survival time in drug-sensitive Plasmodium berghei infected mice (Mus musculus) at 160 mg/kg; cured 2 of 5. The format is functional, organism-based. More on the design: dose 160 mg/kg.
In assay [28] the test system is Plasmodium berghei. The experiment in a line: Increased mean survival time in drug-sensitive Plasmodium berghei infected mice (Mus musculus) at 320 mg/kg; cured 4 of 5.

In the case of `CC(N/N=C(\S)N1CCCC1)c1ccccn1` (stereo not given), the Survival time in [1] is 5.2 days; in assay [2] it was “Cured 1 of 5 mice”; in [3] it was “Toxic in 3 of 5 mice”; in assay [4], “Toxic in 5 of 5 mice”; in [5], 1.3 days.

Regarding `CC(N/N=C(\[SeH])N1CCCCCC1)c1ccccn1` (stereo not given), the Survival time in assay [6] was 6.1 days; in assay [7], “Cured 3 of 5 mice; toxic in 2 of 5 mice”; in assay [1] it was 5.9 days; in assay [8], “Cured 2 of 5 mice; toxic in 2 of 5 mice”; in [9] it was “Cured 1 of 5 mice”; in [5] it was 0.3 days.

`CC(N/N=C(\S)N1CCC(c2ccccc2)CC1)c1ccccn1` (stereo not given): the figures for the Survival time entry in assay [10], in assay [11] and in assay [4] were “Cured 4 of 5 mice”, “Cured 1 of 5 mice” and “Toxic in 5 of 5 mice”, respectively.

On to `C/C(=N\N=C(/S)N1CCC(c2ccccc2)CC1)c1ccccn1`, for which the Survival time entry is “Cured 5 of 5 mice” in assay [12]; “Cured 5 of 5 mice” in [13]; 0.4 days in [1]; “Cured 3 of 5 mice” in assay [14]; “Cured 1 of 5 mice” in [15].

As to `CC(N/N=C(\[SeH])N1CC2CCC(CC2)C1)c1ccccn1` (stereo not given), the Survival time in assay [6] was 5.5 days; in assay [16], “Cured 4 of 5 mice; toxic in 1 of 5 mice”; in assay [1], 0.5 days; in [17] it was -0.3 days; in assay [18] it was “Cured 2 of 5 mice”; in assay [5] it was -0.3 days.

Take `CC(N/N=C(\S)N1CCCCCC1)c1ccccn1` (stereo not given): the Survival time in assay [1] was 2.4 days; in assay [19] it was “Toxic in 5 of 5 mice”; in assay [4], “Toxic in 5 of 5 mice”.

Take `C/C(=N\NC(=S)N(C)C)c1ccccn1`: the Survival time result is “Toxic in 5 of 5 mice” in assay [20] and 0.5 days in assay [1].

In the case of `CC(N/N=C(\S)N1CC2CCC(CC2)C1)c1ccccn1` (stereo not given), the Survival time in assay [21] is 7.9 days; in assay [9], “Cured 1 of 5 mice”; in assay [3] it was “Toxic in 3 of 5 mice”; in assay [22], “Cured 4 of 5 mice; toxic in 1 of 5 mice”; in assay [23] it was “Toxic in 5 of 5 mice”; in assay [4], “Toxic in 5 of 5 mice”. In assay [24], the Survival time result is reported as “Cured 2 of 5 mice”.

Turning to `C/C(=N\N=C(/S)NCc1ccccc1)c1ccccn1`, the figures for the Survival time in assay [25], in [1] and in assay [26] were 10.6 days, 0.5 days and 3.7 days, respectively.

On to `C/C(=N\N=C(/S)N(C)C1CCCCC1)c1ccccn1`, for which the Survival time in assay [6] is 9.6 days; in assay [1], 3.7 days; in [17], 12.1 days; in assay [27], “Cured 2 of 5 mice”; in [28], “Cured 4 of 5 mice”.
